Reference: the NIST ThermoML archive (doi:10.1021/je0601255)

Assay: xn = mol fraction of the nth substance listed
Conditions: 101 kPa, Liquid; for viscosity: Capillary tube (Ostwald / Ubbelohde) method; for mass density: Pycnometric method

C=C(C)C(=O)O [2-methyl-2-propenoic acid] + CCCCO
Conditions | mass density, 288.15 K [kg/m3] | mass density, 298.15 K [kg/m3] | mass density, 308.15 K [kg/m3] | mass density, 318.15 K [kg/m3] | viscosity, 288.15 K [mPa·s] | viscosity, 298.15 K [mPa·s] | viscosity, 308.15 K [mPa·s] | viscosity, 318.15 K [mPa·s]
x2 = 0 | 1018.3 | 1009.5 | 999.4 | 989.2 | 1.447 | 1.267 | 1.078 | 0.945
x2 = 0.1 | 996.3 | 987.7 | 978 | 968.1 | 1.632 | 1.4 | 1.174 | 1.015
x2 = 0.2 | 974.7 | 966.5 | 957.4 | 948.1 | 1.818 | 1.534 | 1.275 | 1.09
x2 = 0.3 | 954.3 | 946.3 | 937.7 | 928.7 | 2.009 | 1.672 | 1.377 | 1.16
x2 = 0.4 | 934.2 | 926.6 | 918.1 | 909.3 | 2.2 | 1.81 | 1.476 | 1.227
x2 = 0.5 | 914.2 | 907 | 898.6 | 890.1 | 2.392 | 1.947 | 1.574 | 1.294
x2 = 0.6 | 894.2 | 887.4 | 879 | 870.6 | 2.576 | 2.079 | 1.667 | 1.355
x2 = 0.7 | 874.1 | 867.3 | 859.1 | 851 | 2.756 | 2.204 | 1.756 | 1.413
x2 = 0.8 | 853.7 | 847 | 839.2 | 831.4 | 2.935 | 2.329 | 1.842 | 1.466
x2 = 0.9 | 832.9 | 826.7 | 819.1 | 811.5 | 3.111 | 2.453 | 1.925 | 1.515

C=C(C)C(=O)OCc1ccccc1 [benzyl methacrylate] + CCCCO
Conditions | mass density, 288.15 K [kg/m3] | mass density, 298.15 K [kg/m3] | mass density, 308.15 K [kg/m3] | mass density, 318.15 K [kg/m3] | viscosity, 288.15 K [mPa·s] | viscosity, 298.15 K [mPa·s] | viscosity, 308.15 K [mPa·s] | viscosity, 318.15 K [mPa·s]
x2 = 0 | 1041.2 | 1034.7 | 1025.8 | 1017 | 2.871 | 2.302 | 1.885 | 1.58
x2 = 0.1 | 1027.8 | 1021.3 | 1012.5 | 1003.9 | 2.655 | 2.123 | 1.746 | 1.455
x2 = 0.2 | 1013.3 | 1006.8 | 998.1 | 989.5 | 2.519 | 2.021 | 1.656 | 1.388
x2 = 0.3 | 997.5 | 990.9 | 982.3 | 973.8 | 2.462 | 1.958 | 1.605 | 1.342
x2 = 0.4 | 979.9 | 973.3 | 964.8 | 956.4 | 2.41 | 1.919 | 1.568 | 1.308
x2 = 0.5 | 960.3 | 953.7 | 945.3 | 937 | 2.384 | 1.868 | 1.525 | 1.272
x2 = 0.6 | 938.3 | 931.6 | 923.4 | 915.2 | 2.375 | 1.834 | 1.505 | 1.247
x2 = 0.7 | 913.2 | 906.6 | 898.5 | 890.4 | 2.427 | 1.863 | 1.508 | 1.244
x2 = 0.8 | 884.5 | 877.9 | 869.9 | 862 | 2.51 | 1.982 | 1.59 | 1.302
x2 = 0.9 | 851.3 | 844.6 | 836.8 | 829.1 | 2.704 | 2.168 | 1.727 | 1.394
